Assay results reported in patent US5519024A, “Quinolonecarboxylic acid derivatives and their use” (Takeda Chemical Industries, Ltd., priority 1993, dated 1996).
Read-outs that look alike come from different tables or passages of the source.

Biological target: T1, GPIIb/IIIa (Homo sapiens, UniProt P05106+P08514)
T1 construct: Purification of GPIIb/IIIa from HEL cells; endogenous in cells; host or cells: HEL cells (HEL 92.1.7, ATCC TIB180); endogenous complex solubilized with Triton X-100 and purified in house
Assay: Inhibitory activity against binding of GPIIb/IIIa and fibrinogen
Settings: for inhibition at 10 µM / inhibition at 1 µM: read-out: GPIIb/IIIa Fibrinogen Binding Inhibitory Activity
Procedure: Test Example 1: Inhibitory activity against binding of GPIIb/IIIa and fibrinogen
(1) Cultivation of human erythroleukemia-derived cell line (hereinafter referred to as HEL cells)
HEL cells (HEl92.1.7; ATCC No. TIB180) were purchased from ATCC (Rockville, Md., U.S.A.). The medium was RPMI medium (GIBCO Laboratories, Grand Island, N..Y, U.S.A.) containing 40 mM N-2-hydroxyethylpiperazine-N'-2-ethanesulfonic acid (hereinafter referred to as HEPES) (pH 7.0), 0.2% NaHCO3, 100 μg/ml kanamycin and 10% FCS. The cells were cultured in the presence of 5% CO2 at 37° C., with the medium replaced with a fresh medium to obtain a 4- to 5-fold dilution at intervals of 3 to 4 days.
(2) Purification of GPIIb/IIIa from HEL cells
GPIIb/IIIa was purified by a modification of the method of L. A. Fitzgerald et al. [J. Biol. Chem., 262, 3936 (1987)] as follows: All purification was conducted at room temperature, unless otherwise stated. At 7 days of cultivation, cells were collected from the HEL cell culture broth (cell suspension) by centrifugation (1,000 ×g, 10 minutes, 4° C.). After washing with 20 mM Tris-HCl (pH 7.5) containing 1 mM EDTA and 150 mM NaCl, the cells were suspended in a solubilizing buffer (20 mM Tris-HCl, 150 mM NaCl, 1% Triton X-100, 1 mM MgCl2, 1 mM CaCl2, 0.1 mM (p-amidinophenyl)methanesulfonyl fluoride (hereinafter referred to as APMSF), 10 nM leupeptin, 0.02% NaN3, pH 7.4), followed by gentle stirring at 4° C. for 30 minutes, to solubilize the GPIIb/IIIa. The suspension was centrifuged (100,000 ×g, 1 hour) at 4° C., and the cell debris removed, to yield a cell extract. The cell extract was passed through a Heparin-Sepharose CL-6B column (Pharmacia LKB) and a DEAE-Toyopearl 650M column (Tosoh), both previously equilibrated with a column buffer (20 mM Tris-HCl, 150 mM NaCl, 0.1% Triton X-100, 1 mM MgCl2, 1 mM CaCl2, 0.1 mM APMSF, 1 nM leupeptin, 0.05% NaN3, pH 7.4). The effluent was applied to a ConA-Sepharose column (Pharmacia LKB), previously equilibrated with the same column buffer as above, to adsorb the GPIIb/IIIa, followed by elution with the same column buffer but containing 0.5M methyl α-D-mannopyranoside. The eluted fraction was concentrated at 4° C. using an ultrafiltration apparatus (Amicon Corporation the fraction's molecular weight of 10,000), after which it was subjected to gel filtration through a Sephacryl S-300 column (Pharmacia LKB), previously equilibrated with the same column buffer, to yield a purified standard sample.
(3) Biotinization of human fibrinogen
Conducted by the method of I. F. Charo [I. F. Charo et al., J. Biol. Chem., 266, 1415 (1991)].
Human fibrinogen (Kabi Vitrum AB) was dissolved in PBS to 5 mg/ml and then dialyzed at 4° C. against 0.1M carbonate buffer (pH 8.2) containing 0.1M NaCl. After dialysis, insoluble substances were removed by centrifugation (100,000 ×g, 30 minutes), and the dialyzate was diluted to 1 mg/ml with the same buffer. To this dilution, sulfo-N-hydroxysuccinimidebiotin (Pierce Chemical Co.) was added to a final concentration of 0.2 mg/ml, followed by gentle mixing at room temperature for 30 minutes, to biotinize the fibrinogen. After completion of the reaction, the mixture was dialyzed against 0.05M Tris-HCl buffer (pH 7.4) containing 0.1M NaCl and 0.05% NaN3.
(4) Determination of inhibitory activity against fibrinogen binding
Conducted by a modification of the method of I. F. Charo [I. F. Charo et al., J. Biol. Chem., 266, 1415 (1991)] as follows: The purified GPIIb/IIIa was diluted to 1 μg/ml with buffer A (20 mM Tris-HCl, 150 mM NaCl, 1 mM CaCl2, 0.02% NaN3, pH 7.4). A 100 μl aliquot of this dilution was dispensed to a 96-well microplate (Maxisorp, produced by Nunc), and the plate kept standing at 4° C., to adsorb the GPIIb/IIIa to the microplate. Next, 150 μl of buffer B (35 mg/ml BSA, 50 mM Tris-HCl, 100 mM NaCl, 2 mM CaCl2, 0.02% NaN3, pH 7.4) was added, followed by 2 hours of blocking at 30° C. […]

T1 sequence (P08514 32-887 limits assumed): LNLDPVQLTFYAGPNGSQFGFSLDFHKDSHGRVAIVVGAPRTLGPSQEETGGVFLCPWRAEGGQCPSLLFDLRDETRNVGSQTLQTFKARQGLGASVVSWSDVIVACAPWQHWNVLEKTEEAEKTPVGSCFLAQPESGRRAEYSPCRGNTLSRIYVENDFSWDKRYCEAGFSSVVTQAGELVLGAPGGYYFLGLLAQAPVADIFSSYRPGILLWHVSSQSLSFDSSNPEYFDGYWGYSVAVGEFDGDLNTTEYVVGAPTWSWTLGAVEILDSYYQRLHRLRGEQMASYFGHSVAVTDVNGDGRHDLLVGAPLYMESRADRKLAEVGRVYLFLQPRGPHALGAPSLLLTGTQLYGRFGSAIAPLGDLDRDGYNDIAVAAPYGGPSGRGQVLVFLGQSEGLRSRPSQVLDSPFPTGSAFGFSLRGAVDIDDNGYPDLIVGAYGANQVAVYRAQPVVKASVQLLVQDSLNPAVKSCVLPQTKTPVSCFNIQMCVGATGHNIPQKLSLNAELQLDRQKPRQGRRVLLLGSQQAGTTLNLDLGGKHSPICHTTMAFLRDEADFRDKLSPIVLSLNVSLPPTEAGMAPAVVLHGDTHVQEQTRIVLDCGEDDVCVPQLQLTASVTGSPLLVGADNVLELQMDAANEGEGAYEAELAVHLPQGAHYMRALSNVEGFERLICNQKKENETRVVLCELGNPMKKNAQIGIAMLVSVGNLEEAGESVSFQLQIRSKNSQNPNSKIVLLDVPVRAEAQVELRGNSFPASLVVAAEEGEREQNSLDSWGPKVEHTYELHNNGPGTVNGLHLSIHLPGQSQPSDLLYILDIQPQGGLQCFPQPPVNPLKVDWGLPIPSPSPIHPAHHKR
T1 sequence (P08514 891-1039 limits assumed): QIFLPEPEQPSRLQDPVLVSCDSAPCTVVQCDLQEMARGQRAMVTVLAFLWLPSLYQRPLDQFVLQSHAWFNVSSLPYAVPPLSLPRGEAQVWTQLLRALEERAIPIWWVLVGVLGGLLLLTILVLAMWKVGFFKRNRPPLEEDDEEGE
T1 sequence (P05106 27-788): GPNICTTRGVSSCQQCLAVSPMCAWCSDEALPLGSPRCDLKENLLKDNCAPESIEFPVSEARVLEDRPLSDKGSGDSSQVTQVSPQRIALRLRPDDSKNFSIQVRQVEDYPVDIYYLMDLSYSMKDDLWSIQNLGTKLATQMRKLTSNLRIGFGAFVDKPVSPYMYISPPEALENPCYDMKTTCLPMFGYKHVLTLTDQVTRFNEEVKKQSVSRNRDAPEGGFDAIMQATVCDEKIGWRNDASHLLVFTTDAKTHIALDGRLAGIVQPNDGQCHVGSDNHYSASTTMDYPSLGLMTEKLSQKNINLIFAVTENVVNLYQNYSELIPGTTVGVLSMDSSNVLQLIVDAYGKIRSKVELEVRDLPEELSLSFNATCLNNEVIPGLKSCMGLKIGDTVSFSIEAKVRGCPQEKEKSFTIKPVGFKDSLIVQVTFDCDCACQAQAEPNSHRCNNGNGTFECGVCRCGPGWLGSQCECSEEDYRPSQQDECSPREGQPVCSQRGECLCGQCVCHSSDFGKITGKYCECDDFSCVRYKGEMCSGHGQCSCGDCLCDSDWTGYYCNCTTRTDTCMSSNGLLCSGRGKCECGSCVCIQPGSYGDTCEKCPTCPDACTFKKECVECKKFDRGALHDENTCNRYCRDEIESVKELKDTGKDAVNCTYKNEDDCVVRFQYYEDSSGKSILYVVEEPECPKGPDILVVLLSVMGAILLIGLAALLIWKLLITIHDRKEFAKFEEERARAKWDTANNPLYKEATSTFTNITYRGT

Row | inhibition at 10 µM (Table 2, 10^-5 M) [%] | inhibition at 1 µM (Table 2, 10^-6 M) [%] | Molecule | further results
1 | 58.5 | 26.1 | O=C(O)c1cn(Cc2ccc(Cl)cc2)c2c(F)c(N3CCNCC3)c(F)cc2c1=O [Compound 74, 1-(4-Chlorobenzyl)-6,8-difluoro-7-(1-piperazinyl)-1,4-dihydro-4-oxoquinoline-3-carboxylic acid] | –
2 | 100 | 100 | O=C(O)c1cn(Cc2ccncc2)c2c(F)c(N3CCNCC3)c(F)cc2c1=O [Compound 75, 6,8-Difluoro-7-(1-piperazinyl)-1-(4-pyridylmethyl)-1,4-dihydro-4-oxoquinoline-3-carboxylic acid] | –
3 | 100 | 83.1 | COc1ccccc1Cn1cc(C(=O)O)c(=O)c2cc(F)c(N3CCNCC3)c(F)c21 [Compound 76, 6,8-Difluoro-1-(2-methoxybenzyl)-7-(1-piperazinyl)-1,4-dihydro-4-oxoquinoline-3-carboxylic acid] | –
4 | 100 | 100 | COc1cccc(Cn2cc(C(=O)O)c(=O)c3cc(F)c(N4CCC(C5CCNCC5)CC4)c(F)c32)c1 [Compound 80, 6,8-Difluoro-1-(3-methoxybenzyl)-7-[4-(4-piperidinyl)piperidin-1-yl]-1,4-dihydro-4-oxoquinoline-3-carboxylic acid] | –

Second part, the molecule before the results:

Row | Molecule | inhibition at 10 µM (Table 2, 10^-5 M) [%] | inhibition at 1 µM (Table 2, 10^-6 M) [%] | further results
5 | O=C(O)c1cn(Cc2cscn2)c2c(F)c(N3CCN(c4ccncc4)CC3)c(F)cc2c1=O [Compound 73, 6,8-Difluoro-7-[4-(4-pyridyl)piperazine-1-yl]-1-(4-thiazolylmethyl)-1,4-dihydro-4-oxoquinoline-3-carboxylic acid] | 100 | 100 | –
6 | COc1ccc(Cn2cc(C(=O)O)c(=O)c3ccc(N4CCC(C5CCNCC5)CC4)cc32)cc1 [Compound 77, 1-(4-Methoxybenzyl)-7-[4-(4-piperidinyl)piperidin-1-yl]-1,4-dihydro-4-oxoquinoline-3-carboxylic acid] | 94.5 | 100 | –
7 | O=C(O)c1cn(Cc2ccc(F)cc2)c2c(F)c(N3CCC(C4CCNCC4)CC3)c(F)cc2c1=O [Compound 78, 6,8-Difluoro-1-(4-fluorobenzyl)-7-[4-(4-piperidinyl)piperidin-1-yl]-1,4-dihydro-4-oxoquinoline-3-carboxylic acid] | 98.1 | 100 | –
8 | O=C(O)c1cn(Cc2ccc(C(F)(F)F)cc2)c2c(F)c(N3CCC(C4CCNCC4)CC3)c(F)cc2c1=O [Compound 79, 6,8-Difluoro-7-[4-(4-piperidinyl)piperidin-1-yl]-1-(4-trifiuoromethylbenzyl)-1,4-dihydro-4-oxoquinoline-3-carboxylic acid] | 100 | 100 | –
9 | COc1ccc(Cn2cc(C(=O)O)c(=O)c3ccc(N4CCNCC4)cc32)cc1 [Compound 81, 1-(4-Methoxybenzyl)-7-(4-piperazin-1-yl)-1,4-dihydro-4-oxoquinoline-3-carboxylic acid] | 100 | 100 | –
10 | O=C(O)c1cn(C2CC2)c2cc(N3CCNCC3)c(F)cc2c1=O [Cyprofloxacin, reference compound] | – | – | inhibition at 1 µM: 47.6%; inhibition at 10 µM: 85.5%
11 | CCn1cc(C(=O)O)c(=O)c2cc(F)c(N3CCNCC3)nc21 [Enoxacin, reference compound] | – | – | inhibition at 10 µM (Table 1, 1 × 10^-5 M): 62%; inhibition at 1 µM (Table 1, 1 × 10^-6 M): 24.3%
12 | CCn1cc(C(=O)O)c(=O)c2cc(F)c(N3CCNCC3)cc21 [Norfloxacin, reference compound] | – | – | inhibition at 10 µM (Table 1, 1 × 10^-5 M): 77.4%; inhibition at 1 µM (Table 1, 1 × 10^-6 M): 38.7%
13 | CC1COc2c(N3CCN(C)CC3)c(F)cc3c(=O)c(C(=O)O)cn1c23 (stereo not drawn) [Ofloxacin, reference compound] | – | – | inhibition at 10 µM (Table 1, 1 × 10^-5 M): 42.4%; inhibition at 1 µM (Table 1, 1 × 10^-6 M): 4%
14 | NC1CCN(c2nc3c(cc2F)c(=O)c(C(=O)O)cn3-c2ccc(F)cc2F)C1 (stereo not drawn) [Tosufloxacin, reference compound] | – | – | inhibition at 10 µM (Table 1, 1 × 10^-5 M): 37.6%; inhibition at 1 µM (Table 1, 1 × 10^-6 M): 30.7%
15 | Romechloxaxin [reference compound] | – | – | GPIIb/IIIa Fibrinogen Binding Inhibitory Activity (Table 1, 1 × 10^-5 M): 59.6%; GPIIb/IIIa Fibrinogen Binding Inhibitory Activity (Table 1, 1 × 10^-6 M): 22.8%
